Reference: patent US20240366560A1, “SMALL MOLECULE TREATMENT OF FATTY LIVER DISEASE AND HCC” (ScandiEdge Therapeutics AB, priority 2021, published 2024)

Assays:
Parameters in all cases: species or system rat
Sprague Dawley male rats [1] = test: In vivo biosafety study: micronucleus frequencies (MNPCEs) in blood; conditions: 30 mg/kg oral, 7 days, CHOW, p>0.05
Description: (§1) In vivo biosafety studies. Healthy Sprague Dawley male rats (12 weeks old, 250-280 g) were obtained from Atatürk University Experimental Research Center (ATADEM, Erzurum Turkey) and housed under standard environmental conditions (temperature 20° C.-25° C., humidity 50±20% and 12-hour light/dark diurnal cycle). Food and water were available ad libitum. Rats were randomly separated into one control group and two experimental groups (30 mg/kg/day BX-912 or JNK-IN-5A, n=5). BX-912 and JNK-IN-5A were dissolved in DMSO and orally administrated using oral gavage for 7 days. The control group were received the same amount of vehicle solution only.
(§2) After 7 days, rats were anaesthetized, and blood samples were collected from the abdominal aorta for biochemical and haematological analysis. The plasma was separated and stored at −80° C. for further analysis. Major organs such as heart, kidney, liver, muscle, adipose, intestine (duodenum, ileum, jejunum), pancreas, colon, and stomach were collected from all the animals for further analysis. Selected organs were fixed in 10% neutral buffered formalin for histopathological examination.
To evaluate the potential toxicity of BX-912 and JNK-IN-5A in animals, three groups of 12-week-old rats (n=5) were raised. The first group was fed with CHOW (Ctrl) for seven days. The second group was fed with CHOW plus BX-912 (30 mg/kg) for seven days. […]

Sprague Dawley male rats [2] = test: In vivo biosafety study: histopathological examination of major organs; conditions: 30 mg/kg oral, 7 days, CHOW
Description: as §1, §2
Histopathological examination. The liver tissues were fixed in 10% buffered formaldehyde solution. After fixation, the tissues were passed through graded alcohol and xylene series and embedded in paraffin blocks. 5 micrometer thick sections were taken serially from the paraffin blocks. Histopathological changes were evaluated by performing hematoxylin eosin staining on the sections taken. Sections were evaluated according to histopathological findings as none (−), mild (+), moderate (++) and severe (+++).
To evaluate the potential toxicity of BX-912 and JNK-IN-5A in animals, three groups of 12-week-old rats (n=5) were raised. The first group was fed with CHOW (Ctrl) for seven days. The second group was fed with CHOW plus BX-912 (30 mg/kg) for seven days. The third group was fed with CHOW plus JNK-IN-5A (30 mg/kg) for seven days. After the seven days, all rats were sacrificed, and tissue samples from major organs and blood samples were collected for biosafety evaluation.

HSD-fed rats = test: In vivo efficacy study in HSD-fed steatosis rats: immunohistochemical 8-OH-dG examination of liver; conditions: 30 mg/kg, 7 days, HSD 3w group: strong, FIG. 3
From the text: In vivo efficacy studies. After 1-week acclimation period, rats were randomly separated into two groups: control group (n=5) and high sucrose group (n=20). The control group was fed with a standard diet while the others consumed high sucrose diet (HSD). Sucrose was purchased from Sigma Chemical Co. (St Louis, MO, USA) and supplied at the dose of 10% in the drink water for two weeks. After 2 weeks, five rats in the HSD group were randomly sacrificed for conformation of NAFLD model. Then, the remaining rats in the HSD group were separated into three sub-groups (n=5): HSD group, HSD plus BX-912 group and HSD plus JNK-IN-5A group. BX-912 and JNK-IN-5A were dissolved in DMSO and were orally administrated using oral gavage for one week (30 mg/kg/day). The HSD group were treated with vehicle solution only. At the end of the experiment, rats were sacrificed after being anesthetized. Blood samples were collected from the abdominal aorta and centrifuged at 8000 rpm for 15 min at 4° C. The plasma was separated and stored at −80° C. until further analysis. Other internal organs, including the heart, adipose tissues, liver, kidney, muscle, intestine (duodenum, ileum, jejunum), pancreas, colon and stomach were immediately removed and then snap frozen in liquid nitrogen and stored at −80° C.; the liver was also fixed in 10% formaldehyde for histopathological examination. Immunohistochemical examination. […]

SMILES | frequencies of MNPCEs compared to Ctrl animals (Sprague Dawley male rats [1]) | histological structure of kidney, small intestine, large intestine, stomach, heart, pancreas, muscle tissues and liver (Sprague Dawley male rats [2]) | side effects on the rats (overall conclusion) (Sprague Dawley male rats [2]) | 8-OH-dG expression in hepatocytes in liver tissues (HSD-fed rats)
O=C(Nc1cccc(Nc2ncc(Br)c(NCCc3cnc[nH]3)n2)c1)N1CCCC1 [BX-912, N-[3-[[5-bromo-4-[[2-(1H-imidazol-5-yl)ethyl]amino]-2-pyrimidinyl]amino]phenyl]-1-pyrrolidinecarboxamide] | not statistically different | normal histological structures | no side effects | significantly decreased
N#Cc1c(NC(=O)c2cccc3ccccc23)sc2c1CCCC2 [JNK-IN-5A, N-(3-cyano-4,5,6,7-tetrahydrobenzo [b]thien-2-yl)-1-naphthalenecarboxamide] | not statistically different | normal histological structures | no side effects | significantly decreased
